The values that follow come from US9943501B2 (KOJUN JAPAN CO., LTD., priority 2014, dated 2018).

Holding throughout (type): in vivo
Assay [1] relates to C57BL/6J mice fed with a high-fat diet. In words: Insulin in blood of dietary-induced obesity mouse model. The conditions noted are these: administration groups, particularly the low-dose group; 85 days; FIG. 16. Here is the method: (§1) For each individual of the male C57BL/6J mice after a lapse of 85 days into the test of Example 9, blood was collected from the abdominal vena cava using a syringe supplemented with heparin under anesthesia with 2% isoflurane. The amount of blood collected was set to approximately 0.8 mL. The collected blood was stored under ice cooling until centrifugation. After centrifugation (conditions: 4° C., approximately 1800×g, 10 min), the upper layer was recovered to obtain plasma. The plasma was dispensed to sampling tubes and cryopreserved until measurement. The mouse adiponectin concentration contained in the mouse plasma obtained from each individual was measured using a commercially available ELISA kit, and the average adiponectin concentration of each test group was determined.
In Example 10, the amount of […] insulin contained in the mouse plasma obtained from each individual was measured using a commercially available ELISA kit, and the average insulin concentration of each test group was determined. The ordinate of the drawing depicts the insulin concentration (ng/mL) in the mouse plasma. The test group indicated by each bar of the bar graph is the same as in FIG. 15 mentioned above.

Assay [2] has the same test system. In words: Anti-obesity effect (body weight) on dietary-induced obesity mouse model. As to conditions: 12 weeks; for body weight gain inhibited, with respect to the body weight gain of the control group attributed to the high-calorie diet: once a day into the stomach, 84th day. Here is the method: The 5H4PB obtained in Example 6 administered to mice fed with a high-fat diet to verify its anti-obesity effect. Five-week-old male C57BL/6J mice (supplied by Charles River Laboratories Japan, Inc.) were individually raised (one per cage) under environmental conditions involving a temperature of 20 to 26° C., a humidity of 35 to 75%, and 12-hour illumination (7:00 to 19:00). After acclimatization for approximately 1 week, the mice were divided into 6 groups each involving 6 to 8 individuals. Of the test groups, a normal group was fed with a normal solid diet CRF1 (a product of Oriental Yeast Co., Ltd., 3.57 kcal/g) during the test period, and a control group and drug administration groups were fed with a high-calorie solid diet D12492 (a product of Research Diets, Inc., 5.24 kcal/g) during the test period. The diets were freely taken, and water was also freely taken from water supply bottles.
The test substance 5H4PB (produced in Example 6) or a positive control substance rosiglitzaone (a product of Wako Pure Chemical Industries, Ltd.) was administered once a day for 12 weeks at the predetermined dose shown in Table 2 to the mice in each drug administration group. The rosiglitazone is a selective PPARγ ligand and is a substance having the effect of lowering the concentrations of glucose, fatty acid, and insulin in blood through binding to PPARγ. For the administration, body weight measurement was carried out once a week to calculate the dose to each individual. 5H4PB and rosiglitazone were each suspended in a 0.5 w/v % aqueous methylcellulose solution and diluted with the same aqueous solution to adjust the administration dose to 10 mL/kg. Then, each substance was forced-administered into the stomach using a syringe and a flexible stomach tube. […]
From the start of the test (administration), the body weight of each individual was measured at a frequency of once a week, and the average body weight of each test group was determined. […]

Assay [3] has the same test system. In words: Leptin in blood of dietary-induced obesity mouse model. The conditions noted are these: 0.037 μg/kg/day and 0.01 mg/kg/day; 85 days; FIG. 17. On the procedure: as §1
Leptin is a protein hormone that regulates appetite and metabolism. The leptin concentration in blood is known to elevate due to obesity, resulting in leptin resistance. In Example 10, the amount of mouse leptin contained in the mouse plasma obtained from each individual was measured using a commercially available ELISA kit, and the average leptin concentration of each test group was determined. The ordinate of the drawing depicts the leptin concentration (pg/mL) in the mouse plasma. The test group indicated by each bar of the bar graph is the same as in FIGS. 15 and 16 mentioned above.

Assay [4] has the same test system. In words: Adiponectin in blood of dietary-induced obesity mouse model. The conditions noted are these: 85 days, FIG. 15.
Source text: Adiponectin is a secretory protein related to dysmetabolic syndrome such as insulin resistance, diabetes mellitus or arteriosclerosis. Adiponectin-deficient mice have the properties of being more likely to develop insulin resistance and being more likely to be affected by arteriosclerosis than wild-type mice. In humans as well, it is known that lowered adiponectin concentrations are related to dysmetabolic syndrome such as diabetes mellitus and arteriosclerosis. Thus, the dietary-induced obesity mouse models of Example 9 were subjected to the test of measuring the amount of adiponectin in blood.
as §1, with “determined. […]” for “determined.”

Turning to `O=C1C=C(c2ccccc2)C(O)O1` (stereo not shown) [5H4PB, 5-hydroxy-4-phenylbutenolide], in assay [1], the “insulin concentration in mouse plasma compared with the control group” value is given as “inhibition of a rise in insulin concentration was confirmed”. In assay [2] (0.037 μg/kg/day and 0.01 mg/kg/day), the “anti-obesity effect (overall)” value is “high anti-obesity effect”. The “body weight gain inhibited, with respect to the body weight gain of the control group attributed to the high-calorie diet” value in assay [2] (0.037 μg/kg/day) worked out at 25.8%; in assay [2] (0.01 mg/kg/day) it was 27.8%. In addition, in assay [3], the “leptin concentration in mouse plasma compared with the control group” value was “inhibition of a rise in leptin concentration was confirmed in a dose-dependent manner”. The “adiponectin concentration in mouse plasma compared with the control group (t test)” value in assay [4] (0.01 mg/kg/day) was “significant rise in adiponectin concentration”. In assay [4] (5H4PB administration groups (0.037 μg/kg/day and 0.01 mg/kg/day)), the “adiponectin concentration in mouse plasma compared with the control group” value is reported as “confirmed to elevate”.
